Source: publication PMC11748689, “Pharmacological and structural understanding of the Trypanosoma cruzi proteasome provides key insights for developing site-specific inhibitors” (The Journal of Biological Chemistry, 2024)
Non-standard residues stand in square brackets, D forms with d. Residues, ends and D or L forms follow the SMILES beside them. *: point of attachment. Nva = CCC[C@H](N)C(=O)O; Cbz = O=C(OCc1ccccc1)*

Key:
Type in all cases: biochemical
[1] = target: native T. cruzi proteasome (chymotrypsin-like activity, β5) (Trypanosoma cruzi, UniProt V5BU39+V5C017); experiment: Chymotrypsin-like activity assay (Proteasome-Glo), native T. cruzi proteasome; conditions: for pIC50, Chymotrypsin Assay, Native: mean ± SD, N = 3, biphasic curves (a): pIC50 of most potent curve, 60 min preincubation
Experimental: (§1) Chymotrypsin-, trypsin-, and caspase-like activity assays were performed using a commercially available Proteasome-Glo 3-substrate system assay kit (catalog number G8532) (Promega Corporation) according to the manufacturers protocols and as previously described ([24]).
(§2) Prior to running assays, Proteasome-Glo buffer was used to reconstitute the luciferin detection reagent (containing a recombinant thermostable luciferase enzyme). The resuspended luciferin detection reagent was then mixed with Proteasome-Glo chymotrypsin-, trypsin- or caspase-like substrates (either 40 μM suc-Leu-Leu-Val-Tyr-aminoluciferin, 30 μM Z-Leu-Arg-Arg-aminoluciferin (Z is benzyloxycarbonyl) or 40 μM Z-Nle-Pro-Nle-Asp-aminoluciferin respectively (these concentrations represent 2x final assay concentrations)). These substrate mixtures were allowed to incubate at room temperature for 60 min prior to use to allow the removal of any contaminating free aminoluciferin.
(§3) When proteasome inhibitors were to be screened in the chymotrypsin, trypsin, and caspase assays, test compounds were dispensed into assay wells using an ECHO 550 acoustic dispenser (Labcyte) (final DMSO concentration 1%). Compounds were tested in either a 10-point concentration series (30 μM top final assay concentration, 1 in 3 dilution series) or a 12-point concentration series (30 μM top final assay concentration, 1 in 2.5 dilution series).
(§4) Proteasome assays were then performed as described above using Promega Proteasome-Glo 3-substrate system assay kit. […] Diluted proteasome (4 μl) was added to assay plates using an electronic multichannel pipette (Integra Biosciences Ltd) and the proteasome incubated with compound for 60 min at room temperature.
(§5) Following the 60 min incubation of proteasome and compounds, assays were initiated with the addition of 4 μl of a substrate mix (containing substrate and the luciferin detection reagent) using an electronic multichannel pipette. Final assay concentrations of substrates used were either 20 μM Suc-Leu-Leu-Val-Tyr-aminoluciferin, 15 μM Z-Leu-Arg-Arg-aminoluciferin, or 20 μM Z-Nle-Pro-Nle-Asp-aminoluciferin for chymotrypsin-, trypsin-, or caspase-like activity, respectively. Following a further 60 min assay incubation, luminescence was read using an EnVision 2102 Multilabel Reader (PerkinElmer, Inc) with 0.2 s per well reading time.
(§6) All data processing was performed using Microsoft Excel for Microsoft 365 software.
(§7) Nonlinear dose-response curve fitting was carried out using the Microsoft Excel add-in, XLfit (IDBS). Percentage inhibition data were either fitted to a standard 4-parameter logistic fit model (XLfit model 205; Equation 2) or a biphasic model (either XLfit model 300; Equation 3 or a custom biphasic model; Equation 4 (used in cases where the top and/or bottom parameters deviated from 100%/0% inhibition)).(2) y=A+(B−A)/1+(C/x)^D Where A = % inhibition at bottom, B = % inhibition at top, C = IC50, D = slope, x = inhibitor concentration and y = % inhibition.(3) y=(A/(1+10^(C−log(x))∗B))+((100−A)/(1+10^(D−log(x))∗B)) With A = % inhibition at midplateau, B = slope, C = log(IC50^A), D = log(IC50^B)).
(§8) All IC50 data generated were converted to pIC50 using Equation 5.

[2] = target: recombinant WT T. cruzi proteasome (chymotrypsin-like activity, β5) (Trypanosoma cruzi, UniProt V5BU39+V5C017); experiment: biochemical; conditions: for maximum % inhibition plateau, Chymotrypsin Assay, Wild-type: mean ± SD, N = 3 (N = 2 for DDD02091966), (a) mid-point plateau from biphasic curve fits
Experimental: as §1, §2
(§9) Proteasome assays were carried out using 384-well, white, low-volume plates (catalog number 784904) (Greiner Bio-One) at room temperature (∼23 °C) in 8 μl reaction volumes. When activity checks were to be run in the presence or absence of a fixed concentration of proteasome inhibitor, 80 nL of the inhibitor (at a concentration 100x the required final assay concentration), or 80 nL dimethylsulfoxide (DMSO), were dispensed into assay plates using an Echo 550 acoustic dispenser (Labcyte).
(§10) A 1 in 2 dilution series of the various T. cruzi proteasome samples (native, recombinant WT, β4^R mutant, and Δβ1Δβ2 mutant) were produced in assay buffer (50 mM Tris–HCl, pH 7.5, 10 mM sucrose, 5 mM MgCl2, 1 mM DTT, 2 mM ATP, 150 mM NaCl, 1 mM EDTA, and 0.05 mg/ml bovine serum albumin). Subsequently, 4 μl of the various concentrations of diluted proteasome were added to assay plates using an electronic multichannel pipette (Integra Biosciences Ltd). When kinetic read activity checks were performed (Fig. 2), proteasome final assay concentrations used were 115 μg/ml, 115 μg/ml, and 230 μg/ml native proteasome (in the chymotrypsin, trypsin, and caspase assays, respectively), and 4.1 μg/ml, 3.4 μg/ml, or 1.4 μg/ml recombinant WT proteasome (in the chymotrypsin, trypsin, and caspase assays, respectively). When activity checks were to be run in the presence or absence of a proteasome inhibitor plates containing inhibitor or DMSO control were incubated with the relevant proteasome sample for 60 min at room temperature (this step was not included in activity check experiments where compounds were not used).
(§11) Following the 60 min incubation of proteasome and compound (if required), assays were initiated with the addition of 4 μl of substrate mix (containing substrate and the luciferin detection reagent) using an electronic multichannel pipette. Final assay concentrations of substrates used were either 20 μM Suc-Leu-Leu-Val-Tyr-aminoluciferin, 15 μM Z-Leu-Arg-Arg-aminoluciferin, or 20 μM Z-Nle-Pro-Nle-Asp-aminoluciferin for chymotrypsin-, trypsin- or caspase-like activity respectively.
(§12) Luminescence was read either kinetically or as an endpoint read using an EnVision 2102 Multilabel Reader (PerkinElmer, Inc) with 0.2 s per well reading time. When kinetic assays were run, luminescence was read every 5 min for 90 min. Endpoint assays were run for 60 min before luminescence was read. All data processing and linear fit analyses were performed using Microsoft Excel for Microsoft 365 software (Redmond, Washington; https://www.microsoft.com/).
as §3

[3] = target: recombinant Δβ1Δβ2 mutant T. cruzi proteasome (chymotrypsin-like activity) (Trypanosoma cruzi, UniProt V5BU39+V5C017); experiment: biochemical; conditions: for maximum % inhibition plateau, Chymotrypsin Assay, Δβ1Δβ2 mutant / pIC50, Chymotrypsin Assay, Δβ1Δβ2 mutant: mean ± SD, N = 3
Experimental: (§13) Point mutations were created in individual subunits using overlapping PCR from the original templates using Polh and Tn7L primers outside the genes and suitable internal primers to introduce selected mutations. For Δβ1Δβ2, β1 Thr 55, and β2 Thr 67 were both mutated to Ala, the β4^R mutant was produced by mutating Phe 24 and Ile 29 to Leu and Met respectively in β4 subunit.
as §1, §2, §9, §10, §11, §12

[4] = target: recombinant β4^R mutant T. cruzi proteasome (chymotrypsin-like activity) (Trypanosoma cruzi, UniProt V5BU39+V5C017, F24L/I29M); experiment: biochemical; conditions: for pIC50, Chymotrypsin Assay, β4^R mutant: mean ± SD, N = 3, biphasic curves (a): pIC50 of most potent curve
Experimental: as §13, §1, §2, §9, §10, §11, §12

[5] = target: native T. cruzi proteasome (trypsin-like activity, β2) (Trypanosoma cruzi, UniProt V5BCU3); experiment: Trypsin-like activity assay (Proteasome-Glo), native T. cruzi proteasome; conditions: mean ± SD, N = 3; for IC50: read-out: pIC50, Trypsin Assay, Native (converted)
Experimental: as §1, §2, §3, §4, §5, §6, §7, §8

[6] = target: recombinant WT T. cruzi proteasome (trypsin-like activity, β2) (Trypanosoma cruzi, UniProt V5BCU3); experiment: biochemical; conditions: mean ± SD, N = 3; for IC50: read-out: pIC50, Trypsin Assay, Wild-type (converted)
Experimental: as §1, §2, §3, §4, §5, §6, §7, §8

[7] = target: recombinant β4^R mutant T. cruzi proteasome (trypsin-like activity) (Trypanosoma cruzi, UniProt V5BCU3); conditions: mean ± SD, N = 3
Experimental: as §13, §1, §2, §9, §10, §11, §12

[8] = target: native T. cruzi proteasome (caspase-like activity, β1) (Trypanosoma cruzi, UniProt V5BHX1); experiment: Caspase-like activity assay (Proteasome-Glo), native T. cruzi proteasome; conditions: mean ± SD, N = 3; for IC50: read-out: pIC50, Caspase Assay, Native (converted)
Experimental: as §1, §2, §3, §4, §5, §6, §7, §8

[9] = target: recombinant WT T. cruzi proteasome (caspase-like activity, β1) (Trypanosoma cruzi, UniProt V5BHX1); experiment: Caspase-like activity assay (Proteasome-Glo), recombinant wild-type T. cruzi proteasome; conditions: for pIC50, Caspase Assay, Wild-type: mean ± SD, N = 3
Experimental: as §1, §2, §3, §4, §5, §6, §7, §8

[10] = target: recombinant β4^R mutant T. cruzi proteasome (caspase-like activity) (Trypanosoma cruzi, UniProt V5BHX1); experiment: Caspase-like activity assay (Proteasome-Glo), recombinant β4^R mutant T. cruzi proteasome; conditions: for pIC50, Caspase Assay, β4^R mutant: mean ± SD, N = 3
Experimental: as §13, §1, §2, §9, §10, §11, §12

Compound	pIC50, Chymotrypsin Assay, Native [1]	pIC50, Chymotrypsin Assay, Wild-type [2]	maximum % inhibition plateau, Chymotrypsin Assay, Wild-type [2]	maximum % inhibition plateau, Chymotrypsin Assay, Δβ1Δβ2 mutant [3] [%]	pIC50, Chymotrypsin Assay, Δβ1Δβ2 mutant [3]	pIC50, Chymotrypsin Assay, β4^R mutant [4]	pIC50, Trypsin Assay, Native [5]	pIC50, Trypsin Assay, Wild-type [6]	pIC50, Trypsin Assay, β4^R mutant [7]	pIC50, Caspase Assay, Native [8]	pIC50, Caspase Assay, Wild-type [9]	pIC50, Caspase Assay, β4^R mutant [10]	IC50 [5] [µM]	IC50 [6] [µM]	IC50 [8] [µM]	IC50 [9] [µM]	IC50 [10] [µM]	IC50 [1] [µM]	IC50 [2] [µM]	IC50 [3] [µM]	other results
CC[C@H](C)[C@H](NC(=O)[C@H]([C@@H](C)CC)N(C)C(C)=O)C(=O)N[C@H](C(=O)N[C@@H](CC(C)C)C(=O)[C@@]1(C)CO1)[C@@H](C)O [Epoxomicin, reference compound]	7.50 ± 0.12	7.40 ± 0.17	96.1 ± 3.0%	100.1 ± 0.5	7.44 ± 0.03	7.33 ± 0.15	6.08 ± 0.00	6.09 ± 0.04	6.11 ± 0.06	5.99 ± 0.01	5.97 ± 0.03	5.88 ± 0.03									
COC[C@H](NC(=O)c1cnc(C)s1)C(=O)N[C@@H](COC)C(=O)N[C@@H](Cc1ccccc1)C(=O)[C@@]1(C)CO1 [Oprozomib]									<4.52				> 30.2	> 30.2	> 30.2	> 30.2	> 30.2				
CC(C)C[C@H](NC(=O)CNC(=O)c1cc(Cl)ccc1Cl)B(O)O [Ixazomib, reference compound]			52.7 ± 21.9^ a %						5.53 ± 0.03				8.71	6.92	0.0447	0.055	0.0468	0.0355	0.0195	0.0229	IC50 [4]: 0.0132 µM
CC(C)C[C@@H](C=O)NC(=O)[C@H](CC(C)C)NC(=O)[C@H](CC(C)C)NC(=O)OCc1ccccc1 [MG132, carbobenzoxy-l-leucyl-l-leucyl-l-leucinal, reference compound] (Cbz-Leu-Leu-Leu-aldehyde)			66.1 ± 6.6^ a %						5.21 ± 0.11				8.91	8.32	3.98	3.31	3.09	0.12	0.115	0.0912	IC50 [4]: 0.0603 µM
CCC[C@@H](C=O)NC(=O)[C@H](CC(C)C)NC(=O)[C@H](CC(C)C)NC(=O)OCc1ccccc1 [MG115, reference compound] (Cbz-Leu-Leu-[Nva]-aldehyde)	6.04 ± 0.08	6.07 ± 0.13	93.3 ± 2.9%	99.4 ± 1.0	6.38 ± 0.16	6.24 ± 0.05	4.89 ± 0.16	4.97 ± 0.09	5.24 ± 0.05	4.79 ± 0.11	4.77 ± 0.07	5.03 ± 0.04									
CC(C)C[C@H](NC(=O)[C@H](Cc1ccccc1)NC(=O)c1cnccn1)B(O)O [Bortezomib]															0.0724	0.0724	0.0933				
